Literature values as cited in paper PMC8146789, “20-Hydroxyecdysone, from Plant Extracts to Clinical Use: Therapeutic Potential for the Treatment of Neuromuscular, Cardio-Metabolic and Respiratory Diseases” (Biomedicines, 2021).
Like-named read-outs stand apart in the source and are kept apart here.

How the values were obtained:
[1] = design: method as in PMID 4650153; conditions: mice, oral; ref [122]; cited from earlier work
ERα = system: ERα; design: method as in PMID 24974955; conditions: ref [54]; cited from earlier work
[2] = design: method as in ref [174] = [174]; 174. Thole S.W. The Metabolic Syndrome: The Effects of β-ecdysone on Selected Body Parameters and Serum Lipids on the Metabolic Syndrome Ph.D. Thesis University of Göttingen Göttingen, Germany 2018; conditions: ref [174], cited from earlier work
[3] = design: method as in Wu et al. [124]; conditions: mice, ref Wu et al. [124], cited from earlier work
[4] = 30 days, ref [158], cited from earlier work
[5] = patients with metabolic syndrome

CC(C)(O)CC[C@@H](O)[C@](C)(O)[C@H]1CC[C@@]2(O)C3=CC(=O)[C@@H]4C[C@@H](O)[C@@H](O)C[C@]4(C)[C@H]3CC[C@]12C [20E, 2β,3β,14α,20R,22R,25-hexahydroxy-5β-cholest-7-en-6-one]
bioavailability [1]: low
radioactivity crossing the intestinal tract, of that administered [1]: < 2%
route of elimination [1]: essentially fecal
activation of ERE reporter gene (ERα): could be activated dose dependently
output of metabolic syndrome study ([2]; 40 or 90 mg/day, 3–6–9 months): Reductions in body mass, proportion of body fat, waist cicumference and hsCRP, retention of muscle mass
body parameters versus control group [2, 5]: continuous and significant loss of body mass, fat percentage, and waist diameter
effect on serum lipids [2, 5]: no significant effect on serum lipids
hsCRP level [2, 5]: marked reduction
quantitative distribution, Adrenals ([3]; 5 min): 0.184 µg/g
quantitative distribution, Bile ([3]; 5 min): 0.421 µg/g
quantitative distribution, Bladder ([3]; 5 min): 0.013 µg/g
quantitative distribution, Blood plasma ([3]; 5 min): 0.061 µg/g
quantitative distribution, Brain ([3]; 5 min): 0.013 µg/g
quantitative distribution, Feces ([3]; 5 min): 0.015 µg/g
quantitative distribution, Heart ([3]; 5 min): 0.062 µg/g
quantitative distribution, Kidney ([3]; 5 min): 0.137 µg/g
quantitative distribution, Large intestine ([3]; 5 min): 0.011 µg/g
quantitative distribution, Liver ([3]; 5 min): 0.312 µg/g
quantitative distribution, Lungs ([3]; 5 min): 0.116 µg/g
quantitative distribution, Skeletal muscle ([3]; 5 min): 0.021 µg/g
quantitative distribution, Small intestine ([3]; 5 min): 0.254 µg/g
quantitative distribution, Spinal cord ([3]; 5 min): 0.019 µg/g
quantitative distribution, Spleen ([3]; 5 min): 0.041 µg/g
quantitative distribution, Stomach ([3]; 5 min): 0.034 µg/g
quantitative distribution, Testis ([3]; 5 min): 0.048 µg/g
quantitative distribution, Urine ([3]; 5 min): 0.482 µg/g
quantitative distribution, Adrenals ([3]; 10 min): 0.139 µg/g
quantitative distribution, Bile ([3]; 10 min): 0.456 µg/g
quantitative distribution, Bladder ([3]; 10 min): 0.024 µg/g
quantitative distribution, Blood plasma ([3]; 10 min): 0.057 µg/g
quantitative distribution, Brain ([3]; 10 min): 0.014 µg/g
quantitative distribution, Feces ([3]; 10 min): 0.019 µg/g
quantitative distribution, Heart ([3]; 10 min): 0.052 µg/g
quantitative distribution, Kidney ([3]; 10 min): 0.123 µg/g
quantitative distribution, Large intestine ([3]; 10 min): 0.023 µg/g
quantitative distribution, Liver ([3]; 10 min): 0.251 µg/g
quantitative distribution, Lungs ([3]; 10 min): 0.069 µg/g
quantitative distribution, Skeletal muscle ([3]; 10 min): 0.023 µg/g
quantitative distribution, Small intestine ([3]; 10 min): 0.139 µg/g
quantitative distribution, Spinal cord ([3]; 10 min): 0.028 µg/g
quantitative distribution, Spleen ([3]; 10 min): 0.026 µg/g
quantitative distribution, Stomach ([3]; 10 min): 0.047 µg/g
quantitative distribution, Testis ([3]; 10 min): 0.036 µg/g
quantitative distribution, Urine ([3]; 10 min): 0.921 µg/g
quantitative distribution, Adrenals ([3]; 30 min): 0.098 µg/g
quantitative distribution, Bile ([3]; 30 min): 1.042 µg/g
quantitative distribution, Bladder ([3]; 30 min): 0.038 µg/g
quantitative distribution, Blood plasma ([3]; 30 min): 0.052 µg/g
quantitative distribution, Brain ([3]; 30 min): 0.015 µg/g
quantitative distribution, Feces ([3]; 30 min): 0.035 µg/g
quantitative distribution, Heart ([3]; 30 min): 0.035 µg/g
quantitative distribution, Kidney ([3]; 30 min): 0.098 µg/g
quantitative distribution, Large intestine ([3]; 30 min): 0.029 µg/g
quantitative distribution, Liver ([3]; 30 min): 0.213 µg/g
quantitative distribution, Lungs ([3]; 30 min): 0.057 µg/g
quantitative distribution, Skeletal muscle ([3]; 30 min): 0.028 µg/g
quantitative distribution, Small intestine ([3]; 30 min): 0.094 µg/g
quantitative distribution, Spinal cord ([3]; 30 min): 0.067 µg/g
quantitative distribution, Spleen ([3]; 30 min): 0.024 µg/g
quantitative distribution, Stomach ([3]; 30 min): 0.075 µg/g
quantitative distribution, Testis ([3]; 30 min): 0.029 µg/g
quantitative distribution, Urine ([3]; 30 min): 1.534 µg/g
quantitative distribution, Adrenals ([3]; 1 h): 0.081 µg/g
quantitative distribution, Bile ([3]; 1 h): 0.901 µg/g
quantitative distribution, Bladder ([3]; 1 h): 0.026 µg/g
quantitative distribution, Blood plasma ([3]; 1 h): 0.047 µg/g
quantitative distribution, Brain ([3]; 1 h): 0.013 µg/g
quantitative distribution, Feces ([3]; 1 h): 0.068 µg/g
quantitative distribution, Heart ([3]; 1 h): 0.033 µg/g
quantitative distribution, Kidney ([3]; 1 h): 0.071 µg/g
quantitative distribution, Large intestine ([3]; 1 h): 0.031 µg/g
quantitative distribution, Liver ([3]; 1 h): 0.112 µg/g
quantitative distribution, Lungs ([3]; 1 h): 0.053 µg/g
quantitative distribution, Skeletal muscle ([3]; 1 h): 0.017 µg/g
quantitative distribution, Small intestine ([3]; 1 h): 0.083 µg/g
quantitative distribution, Spinal cord ([3]; 1 h): 0.041 µg/g
quantitative distribution, Spleen ([3]; 1 h): 0.018 µg/g
quantitative distribution, Stomach ([3]; 1 h): 0.061 µg/g
quantitative distribution, Testis ([3]; 1 h): 0.026 µg/g
quantitative distribution, Urine ([3]; 1 h): 0.281 µg/g
quantitative distribution, Adrenals ([3]; 3 h): 0.073 µg/g
quantitative distribution, Bile ([3]; 3 h): 0.301 µg/g
quantitative distribution, Bladder ([3]; 3 h): 0.023 µg/g
quantitative distribution, Blood plasma ([3]; 3 h): 0.032 µg/g
quantitative distribution, Brain ([3]; 3 h): 0.012 µg/g
quantitative distribution, Feces ([3]; 3 h): 0.099 µg/g
quantitative distribution, Heart ([3]; 3 h): 0.031 µg/g
quantitative distribution, Kidney ([3]; 3 h): 0.055 µg/g
quantitative distribution, Large intestine ([3]; 3 h): 0.035 µg/g
quantitative distribution, Liver ([3]; 3 h): 0.078 µg/g
quantitative distribution, Lungs ([3]; 3 h): 0.049 µg/g
quantitative distribution, Skeletal muscle ([3]; 3 h): 0.015 µg/g
quantitative distribution, Small intestine ([3]; 3 h): 0.076 µg/g
quantitative distribution, Spinal cord ([3]; 3 h): 0.033 µg/g
quantitative distribution, Spleen ([3]; 3 h): 0.023 µg/g
quantitative distribution, Stomach ([3]; 3 h): 0.053 µg/g
quantitative distribution, Testis ([3]; 3 h): 0.023 µg/g
quantitative distribution, Urine ([3]; 3 h): 0.102 µg/g
quantitative distribution, Adrenals ([3]; 6 h): 0.065 µg/g
quantitative distribution, Bile ([3]; 6 h): 0.209 µg/g
quantitative distribution, Bladder ([3]; 6 h): 0.018 µg/g
quantitative distribution, Blood plasma ([3]; 6 h): 0.023 µg/g
quantitative distribution, Brain ([3]; 6 h): 0.01 µg/g
quantitative distribution, Feces ([3]; 6 h): 0.931 µg/g
quantitative distribution, Heart ([3]; 6 h): 0.029 µg/g
quantitative distribution, Kidney ([3]; 6 h): 0.043 µg/g
quantitative distribution, Large intestine ([3]; 6 h): 0.048 µg/g
quantitative distribution, Liver ([3]; 6 h): 0.061 µg/g
quantitative distribution, Lungs ([3]; 6 h): 0.045 µg/g
quantitative distribution, Skeletal muscle ([3]; 6 h): 0.013 µg/g
quantitative distribution, Small intestine ([3]; 6 h): 0.061 µg/g
quantitative distribution, Spinal cord ([3]; 6 h): 0.024 µg/g
quantitative distribution, Spleen ([3]; 6 h): 0.027 µg/g
quantitative distribution, Stomach ([3]; 6 h): 0.041 µg/g
quantitative distribution, Testis ([3]; 6 h): 0.021 µg/g
quantitative distribution, Urine ([3]; 6 h): 0.096 µg/g
quantitative distribution, Adrenals ([3]; 12 h): 0.052 µg/g
quantitative distribution, Bile ([3]; 12 h): 0.198 µg/g
quantitative distribution, Bladder ([3]; 12 h): 0.015 µg/g
quantitative distribution, Blood plasma ([3]; 12 h): 0.015 µg/g
quantitative distribution, Brain ([3]; 12 h): 0.008 µg/g
quantitative distribution, Feces ([3]; 12 h): 0.312 µg/g
quantitative distribution, Heart ([3]; 12 h): 0.023 µg/g
quantitative distribution, Kidney ([3]; 12 h): 0.037 µg/g
quantitative distribution, Large intestine ([3]; 12 h): 0.038 µg/g
quantitative distribution, Liver ([3]; 12 h): 0.056 µg/g
quantitative distribution, Lungs ([3]; 12 h): 0.036 µg/g
quantitative distribution, Skeletal muscle ([3]; 12 h): 0.011 µg/g
quantitative distribution, Small intestine ([3]; 12 h): 0.05 µg/g
quantitative distribution, Spinal cord ([3]; 12 h): 0.020 µg/g
quantitative distribution, Spleen ([3]; 12 h): 0.032 µg/g
quantitative distribution, Stomach ([3]; 12 h): 0.032 µg/g
quantitative distribution, Testis ([3]; 12 h): 0.019 µg/g
quantitative distribution, Urine ([3]; 12 h): 0.087 µg/g
quantitative distribution, Adrenals ([3]; 24 h): 0.043 µg/g
quantitative distribution, Bile ([3]; 24 h): 0.094 µg/g
quantitative distribution, Bladder ([3]; 24 h): 0.013 µg/g
quantitative distribution, Blood plasma ([3]; 24 h): 0.011 µg/g
quantitative distribution, Brain ([3]; 24 h): 0.007 µg/g
quantitative distribution, Feces ([3]; 24 h): 0.041 µg/g
quantitative distribution, Heart ([3]; 24 h): 0.022 µg/g
quantitative distribution, Kidney ([3]; 24 h): 0.032 µg/g
quantitative distribution, Large intestine ([3]; 24 h): 0.023 µg/g
quantitative distribution, Liver ([3]; 24 h): 0.046 µg/g
quantitative distribution, Lungs ([3]; 24 h): 0.028 µg/g
quantitative distribution, Skeletal muscle ([3]; 24 h): 0.010 µg/g
quantitative distribution, Small intestine ([3]; 24 h): 0.033 µg/g
quantitative distribution, Spinal cord ([3]; 24 h): 0.018 µg/g
quantitative distribution, Spleen ([3]; 24 h): 0.027 µg/g
quantitative distribution, Stomach ([3]; 24 h): 0.023 µg/g
quantitative distribution, Testis ([3]; 24 h): 0.017 µg/g
quantitative distribution, Urine ([3]; 24 h): 0.046 µg/g
sexual function output ([4]; 5 mg 3×/day, age 40–60 M): Improvement of sexual function during recovery from myocardial infarction
sexual function output ([4]; 5 mg, 2×/day): Improved sperm quality and copulative function in patients with disturbed spermatogenesis as a complication of urologic diseases
